Measurements reported in publication PMC11850249, “Typical and atypical metabolic characteristics of three iridaceae isoflavone components: in vitro and in silico studies” (Frontiers in Pharmacology, 2025).
Where “and” joins values, the source holds several entries; their conditions need not be identical. Identical values can stand only once. Like-named read-outs stand apart in the source and are kept apart here.

Assays:
[1] = system: human liver microsomes (HLMs); experiment: Enzyme kinetics in HLMs; assay type: in vitro ADME; conditions: for Km: n = 3, read-out: Km for metabolite formation
Protocol: (§1) A series of concentrations (1–300 μM) of tectorigenin, irigenin, or irisflorentin were added to HLMs or recombinant enzymes. Nonlinear regression was performed on the substrate concentration and generation rate of metabolites to investigate the enzymatic kinetic characteristics of these components in the metabolic system. All experiments were carried out in triplicate.
(§2) A Waters AQUITY UPLC system (Waters, Milford, MA, United States) equipped with a Dikma ODS C18 column (150 × 4.6 mm, 5 μm) was used for separation at 30°C. The binary mobile phase consisted of A (an aqueous solution containing 0.1% acetic acid and 2 mM ammonium acetate) and B (acetonitrile) at a flow rate of 1 mL/min. The elution settings were as follows: 0 → 5 min: 10% B → 20% B; 5 min → 20 min: 20% B → 50% B; 20 min → 21 min: 50% B → 60% B; 21 min → 25 min: 60% B → 90% B; 25 min → 25.1 min 90%–10% B; 25.1 min → 30 min 10% B. Flow rate: 1 mL/min 260 nm was used as the detection wavelength. Calibration standard curves were generated using a reaction mixture containing tectorigenin, irigenin, or irisflorentin at a concentration range of 0.03–10 µM. The concentrations of the metabolites were calculated using a standard curve of the substrates.
(§3) GraphPad Prism software 5.0 was used to perform non-linear fitting between the metabolite generation rate (V) and substrate concentration [S]. The appropriateness of the enzyme kinetic model was determined using R ^2 and the Eadie-Hofstee fit. The maximum metabolic rate (Vmax) and Michaelis constant (Km) were obtained for kinetic processes that conformed to the Michaelis–Menten model (Equation 1). For kinetic processes that conform to the sigmoidal kinetics model (Equation 2), Vmax, Hill coefficient (n), and S50, concentrations at 50% Vmax were obtained. Intrinsic clearance (Clint) was calculated according to Equation 3 (for the Michaelis–Menten model) and Equation 4 (for the sigmoidal kinetics model). All data are expressed as mean ± Standard Error (SE). One - way analysis of variance was used to compare the differences between different groups. A p-value below 0.05 was regarded as statistically significant. V=VmaxS/Km+S (1) V=Vmax+C^n/S50n+C^n (2) Clint=Vmax/Km (3) Clint=Vmax/S50×n−1/nn−1^1/n (4)

[2] = system: recombinant CYP enzymes (CYP1A2, CYP2A6, CYP2C8, CYP2C9, CYP2C19, CYP2D6, CYP2E1, CYP3A4); experiment: Reaction phenotyping with recombinant CYP enzymes; assay type: in vitro ADME, human
Protocol: To assess the role of CYP enzymes to isoflavone metabolism, tectorigenin, irigenin, or irisflorentin (100 μM) was co-incubated with 25 pmol of recombinant CYP enzymes (CYP1A2, CYP2A6, CYP2C8, CYP2C9, CYP2C19, CYP2D6, CYP2E1, and CYP3A4) and MgCl2 (10 mM) in Tris-HCl buffer. The samples were pre-incubated at 37°C for 5 min, and the reaction was initiated by the addition of NADPH. After 30 min of incubation, the supernatant obtained by centrifugation after adding methanol to the incubated sample was analyzed by HPLC. All experiments were carried out in triplicate.

CYP2C19 = biological target: T1, CYP2C19 (Homo sapiens, UniProt P33261); experiment: Enzyme kinetics with recombinant CYP2C19; assay type: in vitro ADME
T1 construct: purchased CYPEX (Dundee, United Kingdom)
T1 sequence (P33261 whole entry): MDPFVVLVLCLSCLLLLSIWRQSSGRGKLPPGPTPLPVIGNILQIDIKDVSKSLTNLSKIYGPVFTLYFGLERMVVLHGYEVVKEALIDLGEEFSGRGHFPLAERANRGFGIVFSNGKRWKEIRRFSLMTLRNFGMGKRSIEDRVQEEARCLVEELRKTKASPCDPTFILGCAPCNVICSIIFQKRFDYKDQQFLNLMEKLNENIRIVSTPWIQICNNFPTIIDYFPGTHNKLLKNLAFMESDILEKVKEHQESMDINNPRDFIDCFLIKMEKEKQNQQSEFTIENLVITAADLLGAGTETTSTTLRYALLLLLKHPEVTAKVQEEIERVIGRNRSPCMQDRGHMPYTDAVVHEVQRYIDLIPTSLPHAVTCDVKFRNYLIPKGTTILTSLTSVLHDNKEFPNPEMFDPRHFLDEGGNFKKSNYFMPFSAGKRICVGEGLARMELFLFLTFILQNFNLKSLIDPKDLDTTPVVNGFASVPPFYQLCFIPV
Protocol: as §1
(§4) A Waters AQUITY UPLC system (Waters, Milford, MA, United States) equipped with a Dikma ODS C18 column (150 × 4.6 mm, 5 μm) was used for separation at 30°C. The binary mobile phase consisted of A (an aqueous solution containing 0.1% acetic acid and 2 mM ammonium acetate) and B (acetonitrile) at a flow rate of 1 mL/min. […] The concentrations of the metabolites were calculated using a standard curve of the substrates.
(§5) GraphPad Prism software 5.0 was used to perform non-linear fitting between the metabolite generation rate (V) and substrate concentration [S]. The appropriateness of the enzyme kinetic model was determined using R ^2 and the Eadie-Hofstee fit. […] Intrinsic clearance (Clint) was calculated according to Equation 3 (for the Michaelis–Menten model) and Equation 4 (for the sigmoidal kinetics model). All data are expressed as mean ± Standard Error (SE). […]

CYP isoenzymes in HLMs = experiment: Inhibition by chemical CYP inhibitors in HLMs; assay type: in vitro ADME, human
Protocol: To investigate the role of specific CYP subtypes in metabolism, tectorigenin, irigenin, or irisflorentin (100 μM) was co-incubated with HLMs (0.5 mg protein/mL), NADPH (1 mM), and MgCl2 (10 mM) in the presence of known CYP inhibitors. The inhibitors used were α-Naph (20 μM) for CYP1A2 ([Zhang Y. J. et al., 2021]), Tryp (2 μM) for CYP2A6 ([Rodríguez-Morató et al., 2017]), Spz (10 μM) for CYP2C9 ([Berger et al., 2018]), Ticlo (2 μM) for CYP2B6 and 2C19 ([Yang et al., 2019]), Qd (8 μM) for CYP2D6 ([Martin et al., 2022]), DDC (100 μM) for CYP2E1 ([Zhang X. et al., 2021]), and KCZ (1 μM) for CYP3A4 ([Berger et al., 2018]). Finally, the samples obtained by centrifugation after adding ice-cold methanol to the incubated samples were analyzed using HPLC. Samples without inhibitors were used as controls to calculate the inhibition rates. Each inhibitor group and the control group were compared. All experiments were carried out in triplicate.

CYP1A2 = biological target: T2, CYP1A2 (Homo sapiens, UniProt P05177); experiment: Enzyme kinetics with recombinant CYP1A2; assay type: in vitro ADME
T2 construct: purchased CYPEX (Dundee, United Kingdom)
T2 sequence (P05177 1-516): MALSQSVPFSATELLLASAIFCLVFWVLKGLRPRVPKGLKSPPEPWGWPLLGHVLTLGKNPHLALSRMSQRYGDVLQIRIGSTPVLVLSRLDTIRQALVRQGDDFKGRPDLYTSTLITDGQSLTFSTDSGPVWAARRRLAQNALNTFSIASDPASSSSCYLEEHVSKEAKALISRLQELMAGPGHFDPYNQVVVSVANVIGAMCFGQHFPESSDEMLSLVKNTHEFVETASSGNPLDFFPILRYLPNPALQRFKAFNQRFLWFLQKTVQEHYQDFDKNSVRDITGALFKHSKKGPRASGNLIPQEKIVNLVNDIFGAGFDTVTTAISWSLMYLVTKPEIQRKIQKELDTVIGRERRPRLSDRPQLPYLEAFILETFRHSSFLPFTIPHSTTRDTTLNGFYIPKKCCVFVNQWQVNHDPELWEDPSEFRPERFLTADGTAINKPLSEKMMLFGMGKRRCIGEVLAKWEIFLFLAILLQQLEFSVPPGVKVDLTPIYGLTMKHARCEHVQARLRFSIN
Protocol: as §1, §4, §5

rat liver microsomes = system: rat liver microsomes; parameters: method as in Zhang Y. J. et al., 2021; conditions: ref Zhang Y. J. et al., 2021; cited from earlier work
[3] = system: human liver microsomes (HLMs); experiment: Metabolic stability and metabolite identification in HLMs; assay type: in vitro ADME; conditions: 30 min
Protocol: To analyze the metabolic stability, a phase I metabolic system was established. Tectorigenin, irigenin, or irisflorentin (100 μM) was pre-incubated at 37°C with Tris-HCl buffer solution (50 mM), MgCl2 (10 mM), and HLMs (0.5 mg protein/mL). After 5 min, NADPH (1 mM) was added to start the metabolic reactions. After incubation for 30 min, an equal volume of methanol was added to terminate the reaction. After centrifugation, the supernatant was used for metabolite analysis. By comparing the high-performance liquid chromatography (HPLC) chromatograms of the samples incubated for 0 and 30 min to determine the generation of metabolites, mass spectrometry information for the metabolites was obtained using an UPLC-linear ion Trap-Orbitrap Mass Spectrometry method.
A UPLC system coupled with an LTQ-Orbitrap mass spectrometer (Thermo Fisher Scientific, Waltham, MA, United States) was used. The mass spectrometer was equipped with an electrospray ionization source operating in negative ion mode for tectorigenin and irigenin, and in positive ion mode for irisflorentin. The following parameter settings were used: sheath gas flow rate, 45 arb; auxiliary gas flow rate, 15 arb; capillary temperature, 350°C; spray voltage, 3.8 kV; and heating component temperature, 300°C. Xcalibur software (Thermo Fisher Scientific) was employed to acquire and process the data.

Enzyme kinetics in HLMs = assay type: in vitro ADME, human; conditions: human, human liver microsomes, calculated from Vmax and Km or S50, read-out: Clint for metabolite formation
Protocol: as §1, §2, §3

CYP3A4 = biological target: T3, CYP3A4 (Homo sapiens, UniProt P08684); experiment: Enzyme kinetics with recombinant CYP3A4; assay type: in vitro ADME
T3 construct: purchased CYPEX (Dundee, United Kingdom)
T3 sequence (P08684 whole entry): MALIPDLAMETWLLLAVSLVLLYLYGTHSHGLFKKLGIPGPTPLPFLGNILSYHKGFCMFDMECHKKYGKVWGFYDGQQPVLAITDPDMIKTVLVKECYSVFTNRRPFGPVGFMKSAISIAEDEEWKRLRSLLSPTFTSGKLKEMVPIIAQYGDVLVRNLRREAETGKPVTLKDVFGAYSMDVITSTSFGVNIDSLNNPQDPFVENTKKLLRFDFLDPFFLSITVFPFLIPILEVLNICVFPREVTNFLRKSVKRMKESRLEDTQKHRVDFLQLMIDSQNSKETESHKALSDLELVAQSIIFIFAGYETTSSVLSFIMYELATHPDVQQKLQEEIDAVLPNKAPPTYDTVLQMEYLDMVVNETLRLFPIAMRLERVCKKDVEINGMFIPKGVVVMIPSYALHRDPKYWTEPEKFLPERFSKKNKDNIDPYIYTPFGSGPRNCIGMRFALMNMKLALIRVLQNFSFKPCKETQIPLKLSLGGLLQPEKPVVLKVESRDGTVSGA
Protocol: as §1, §4, §5

CYP2E1 = biological target: T4, CYP2E1 (Homo sapiens, UniProt P05181); experiment: Enzyme kinetics with recombinant CYP2E1; assay type: in vitro ADME
T4 construct: purchased CYPEX (Dundee, United Kingdom)
T4 sequence (P05181 whole entry): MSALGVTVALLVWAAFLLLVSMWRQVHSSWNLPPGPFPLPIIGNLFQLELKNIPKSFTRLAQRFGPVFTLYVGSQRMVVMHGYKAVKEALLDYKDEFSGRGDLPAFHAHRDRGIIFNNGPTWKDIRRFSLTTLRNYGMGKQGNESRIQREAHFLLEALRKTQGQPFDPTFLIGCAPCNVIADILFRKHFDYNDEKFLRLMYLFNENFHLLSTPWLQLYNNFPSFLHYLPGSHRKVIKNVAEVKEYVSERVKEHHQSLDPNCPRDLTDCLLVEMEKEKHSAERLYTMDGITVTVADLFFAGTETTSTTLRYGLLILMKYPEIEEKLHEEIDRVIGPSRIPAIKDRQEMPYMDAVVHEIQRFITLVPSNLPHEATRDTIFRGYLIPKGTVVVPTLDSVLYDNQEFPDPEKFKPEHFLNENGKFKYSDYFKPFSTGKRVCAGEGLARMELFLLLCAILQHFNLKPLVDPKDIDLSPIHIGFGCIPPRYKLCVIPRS
Protocol: as §1, §4, §5

[4] = Michaelis-Menten model, mean ± SE

In the case of COc1cc(-c2coc3cc(O)c(OC)c(O)c3c2=O)cc(O)c1OC [Irigenin], the “enzyme kinetic model (Eadie-Hofstee plot)” value (shortened to “enzyme kinetic model”) [1] is reported as “Michaelis–Menten equation”, the Vmax for metabolite formation ([1]; Michaelis-Menten model, mean ± SE, n = 3) is reported as 263 ± 13.6 pmol/min/mg and the Km [1, 4] is reported as 17.5 ± 3.2 µM. The “recombinant CYP subtypes that catalyze metabolite formation” value ([2]; 100 μM substrate, 25 pmol recombinant CYP, 30 min, eight subtypes measured) was “CYP3A4, CYP2C9, and CYP2C19”, the “metabolism by CYP2C19 relative to CYP2C9 and CYP3A4” value ([2]; recombinant enzymes, CYP2C19 vs CYP2C9 and CYP3A4) was 10–29 times and the Clint (CYP2C19) was 0.5 μL/min/pmol CYP. For the same compound, the “effect of Ticlo on metabolite formation (in words)” value (“effect of Ticlo” below) (CYP isoenzymes in HLMs) was “significantly inhibited”.
With COc1cc(-c2coc3cc4c(c(OC)c3c2=O)OCO4)cc(OC)c1OC [Irisflorentin] the Hill coefficient (CYP1A2; recombinant CYP1A2, sigmoidal kinetics) was 1.5 ± 0.1 and 1.5, the Clint (CYP1A2; recombinant CYP1A2, sigmoidal kinetics model) was 1.5 μL/min/pmol CYP and the “enzyme kinetic model” value [1] was “sigmoidal kinetics characteristic”. For the same compound, the “Vmax for metabolite formation” value ([1]; mean ± SE, n = 3) was 235.4 ± 3.2 pmol/min/mg protein, the “Hill coefficient (n)” value ([1]; sigmoidal kinetics model) was 1.8 ± 0.1 and the S50 ([1]; sigmoidal kinetics model, mean ± SE, n = 3) was 32.9 ± 1.0 µM. For the same compound, the Hill coefficient (rat liver microsomes) was 1.48, the “metabolism by CYP1A2 relative to CYP2C9, CYP2C19 and CYP3A4” value ([2]; human, 30 min, 100 μM) was 21–55 times and the “recombinant CYP subtypes that catalyze metabolite formation” value ([2]; human, 30 min, 100 μM) was “CYP1A2, CYP2C19, and CYP3A4”. For the same compound, the “major metabolite after incubation with HLMs” value ([3]; human, 100 μM) was 6,7-dihydroxy-5,3′,4′,5′-tetramethoxy isoflavone, the “effect of Ticlo” value (CYP isoenzymes in HLMs) was “no effect or a weak inhibitory effect” and the “effect of α-Naph on metabolite formation (in words)” value (CYP isoenzymes in HLMs) was “strong inhibition”.
With COc1c(O)cc2occ(-c3ccc(O)cc3)c(=O)c2c1O [Tectorigenin] the microsomal CLint (Enzyme kinetics in HLMs) was 2.6 µL/min/mg, the “enzyme kinetic model” value [1] was “Michaelis–Menten equation” and the Km [1, 4] was 106 ± 7.3 µM. The “Vmax for metabolite formation” value ([1]; mean ± SE, n = 3) was 275.9 ± 7.6 pmol/min/mg protein, the “production of metabolites by CYP2E1 and CYP3A4 relative to the other subtypes” value ([2]; human, 30 min, 100 μM) was 3–38 times and the “recombinant CYP subtypes that catalyze metabolite formation” value ([2]; human, 30 min, 100 μM) was “CYP1A2, CYP2C19, CYP2E1, and CYP3A4”. For the same compound, the Clint (CYP3A4) was 0.2 μL/min/pmol CYP, the “major metabolite after incubation with HLMs” value ([3]; 100 μM substrate, HLMs 0.5 mg protein/mL, NADPH 1 mM) was “hydroxylation metabolite of tectorigenin” and the “effect of Ticlo” value (CYP isoenzymes in HLMs; inhibitor Ticlo (CYP2B6 and 2C19 inhibitor), HLMs) was “no effect or a weak inhibitory effect”. For the same compound, the “effect of α-Naph on metabolite formation (in words)” value (CYP isoenzymes in HLMs; inhibitor α-Naph (CYP1A2 inhibitor), HLMs) was “slight inhibition” and the Clint (CYP2E1) was 0.2 μL/min/pmol CYP.
